From patent EP1964562A1, “PHARMACEUTICAL COMPOSITIONS CONTAINING DERIVATIVE SUBSTANCES OF THIAZOLIDINEDIONES COMBINED WITH A BIGUANIDE FOR USE IN TYPE 2 DIABETES MELLITUS” (priority 2005, dated 2007)
Where two headings read alike, the source gives them in different places.

What was measured:
[1] = molecular target: T1, serum proteins, particularly serum albumin (Homo sapiens, UniProt P02768); conditions: serum albumin; cited from earlier work
T1 construct: host or cells: serum

[2] = system: animal models of diabetes; conditions: animal models of type 2 diabetes; cited from earlier work
[3] = system: serum proteins, particularly serum albumin; conditions: human; cited from earlier work
[4] = system: P-450 activity; conditions: incubated with human P-450 liver microsomes; cited from earlier work
[5] = cited from earlier work
[6] = system: individuals diagnosed with DM2 and obesity; experiment: Example 1: multicentric, randomized, double blind placebo-controlled trial, 8 weeks; format: in vivo, patients
Protocol: A multicentric, randomized, double blind placebo-controlled trial was conducted. In which 600 individuals diagnosed with DM2 and obesity with a BMI higher than 35 kg/m^2 were included.

[7] = system: patients diagnosed with DM2 and obesity; experiment: Example 2: multicentric, randomized, double blind placebo-controlled trial, 12 weeks; format: in vivo; conditions: compared to levels at admission
Protocol: A multicentric, randomized, double blind placebo-controlled trial was conducted. In which 300 patients diagnosed with DM2 and obesity were included. The object of the study was to establish the reduction in lipid profile and in overweight.

[8] = system: lipid metabolism; conditions: therapeutic doses, short and long term clinical studies; cited from earlier work
[9] = cited from earlier work; remark: listed apart in the source
[10] = system: hepatic pioglitazone metabolism; conditions: in vitro, molar concentration equal to pioglitazone; cited from earlier work

T1 sequence (P02768 25-609): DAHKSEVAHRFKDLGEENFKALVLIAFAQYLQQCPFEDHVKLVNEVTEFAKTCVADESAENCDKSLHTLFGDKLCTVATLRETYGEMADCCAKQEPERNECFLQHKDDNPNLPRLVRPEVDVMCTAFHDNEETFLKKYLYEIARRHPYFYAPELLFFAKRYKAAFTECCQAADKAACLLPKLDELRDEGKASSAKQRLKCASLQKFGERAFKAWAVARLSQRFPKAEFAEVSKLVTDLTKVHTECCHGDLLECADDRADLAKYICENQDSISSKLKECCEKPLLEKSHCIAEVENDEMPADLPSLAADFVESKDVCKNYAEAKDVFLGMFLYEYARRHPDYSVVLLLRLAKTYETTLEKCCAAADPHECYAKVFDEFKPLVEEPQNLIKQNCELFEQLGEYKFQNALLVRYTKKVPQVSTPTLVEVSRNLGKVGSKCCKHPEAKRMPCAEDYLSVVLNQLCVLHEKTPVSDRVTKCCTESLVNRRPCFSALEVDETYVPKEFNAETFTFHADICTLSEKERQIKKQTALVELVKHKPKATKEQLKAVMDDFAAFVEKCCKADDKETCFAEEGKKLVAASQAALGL

## CC(=O)c1ccc(CCOc2ccc(CC3SC(=O)NC3=O)cc2)nc1 (centres unmarked) [M-III]
[1]
  bound to serum albumin: > 98%
[2]
  pharmacological activity: pharmacologically active

## CCc1ccc(CCOc2ccc(CC3SC(=O)NC3=O)cc2)nc1 (centres unmarked) [pioglitazone, Pioglitazone]
[3]
  bound to serum proteins: > 99%
[4]
  inhibition of P-450 activity: did not inhibit
[5]; calculated
  apparent clearance, CL/F: 5 to 7 L/h
[5]; human, serum
  mean serum half-live: 3 to 7 h
[5]; in vivo
  renal elimination: negligible
  time to reach steady-state serum concentrations: ≤ 7 days
[5]; oral administration at fasting
  time to maximum concentrations: ≤ 2 h
  time until measurable in serum: ≤ 30 min

## CN(C)C(=N)N=C(N)N [metformin, Metformin]
[6]
  patients' weight change: increased
[7]
  reduction in triglycerides: no significant reduction
[8]
  total cholesterol, LDL cholesterol and triglyceride levels: reduces
[9]; dose of 850 mg, with food
  increase of Tmax by food: 0.583 h
[9]; human, in vivo, po
  Tmax: 2.5 h
  maximum plasma concentration: ≤ 4 µg/mL
  non-absorbed fraction recovered in the feces: 20-30%
  steady-state plasma concentrations: less than 1 µg/ml
[9]; human, plasma, po
  maximum plasma concentration: 1.5 µg/mL
[9]; in vivo
  plasma concentrations in cases of lactacidosis: exceed 5 µg/ml

## CC(O)c1ccc(CCOc2ccc(CC3SC(=O)NC3=O)cc2)nc1 (centres unmarked) [M-IV]
[1]
  bound to serum albumin: > 98%
[2]
  pharmacological activity: pharmacologically active

## CC(=O)N1CCN(c2ccc(OCC3COC(Cn4ccnc4)(c4ccc(Cl)cc4Cl)O3)cc2)CC1 (centres unmarked) [Ketoconazole]
[10]
  inhibition of hepatic pioglitazone metabolism: up to 85%
